Test results reported in patent US12522583B2, “Benzimidazole derivatives and aza-benzimidazole derivatives as Janus kinase 2 inhibitors and uses thereof” (Dana-Farber Cancer Institute, Inc., priority 2018, dated 2026).

Key:
Assay in all cases: KINOMEscan
Type in all cases: binding
Conditions in all cases: read-out: percent control
LYN = LYN (Homo sapiens (Human), UniProt P07948)
Text: (§1) Example 2. In Vitro Kinase Selectivity Profiling of the Compounds of the Present Disclosure

EPHA3 = EPHA3 (Homo sapiens (Human), UniProt P29320)
Text: as §1

MINK = MINK (Homo sapiens (Human), UniProt Q8N4C8)
Text: as §1

WNK2 = WNK2 (Homo sapiens (Human), UniProt Q9Y3S1)
Text: as §1

PIM3 = PIM3 (Homo sapiens (Human), UniProt Q86V86)
Text: as §1

ACVRL1 = ACVRL1 (Homo sapiens (Human), UniProt P37023)
Text: as §1

TRKA = TRKA (Homo sapiens (Human), UniProt P04629)
Text: as §1

SRC = SRC (Homo sapiens (Human), UniProt P12931)
Text: as §1

QSK = QSK (Homo sapiens (Human), UniProt Q9Y2K2)
Text: as §1

BMPR2 = BMPR2 (Homo sapiens (Human), UniProt Q13873)
Text: as §1

CAMK2B = CAMK2B (Homo sapiens (Human), UniProt Q13554)
Text: as §1

RIPK2 = RIPK2 (Homo sapiens (Human), UniProt O43353)
Text: as §1

NEK2 = NEK2 (Homo sapiens (Human), UniProt P51955)
Text: as §1

CDC2L2 = CDC2L2 (Homo sapiens (Human), UniProt Q9UQ88)
Text: as §1

PIK3CA(H1047L) = PIK3CA(H1047L) (Homo sapiens (Human), UniProt P42336, H1047L)
Text: as §1

PRKD3 = PRKD3 (Homo sapiens (Human), UniProt O94806)
Text: as §1

TTK = TTK (Homo sapiens (Human), UniProt P33981)
Text: as §1

BRAF = BRAF (Homo sapiens (Human), UniProt P15056)
Text: as §1

MKK7 = MKK7 (Homo sapiens (Human), UniProt O14733)
Text: as §1

p38-beta = p38-beta (Homo sapiens (Human), UniProt Q15759)
Text: as §1

PDGFRB = PDGFRB (Homo sapiens (Human), UniProt P09619)
Text: as §1

IKK-alpha = IKK-alpha (Homo sapiens (Human), UniProt O15111)
Text: as §1

FER = FER (Homo sapiens (Human), UniProt P16591)
Text: as §1

PIP5K2B = PIP5K2B (Homo sapiens (Human), UniProt P78356)
Text: as §1

KIT(V559D, T670I) = KIT(V559D, T670I) (Homo sapiens (Human), UniProt P10721, T670I/V559D)
Text: as §1

LATS2 = LATS2 (Homo sapiens (Human), UniProt Q9NRM7)
Text: as §1

MAP3K1 = MAP3K1 (Homo sapiens (Human), UniProt Q13233)
Text: as §1

SNARK = SNARK (Homo sapiens (Human), UniProt Q9H093)
Text: as §1

HPK1 = HPK1 (Homo sapiens (Human), UniProt Q92918)
Text: as §1

FLT1 = FLT1 (Homo sapiens (Human), UniProt P17948)
Text: as §1

BMPR1A = BMPR1A (Homo sapiens (Human), UniProt P36894)
Text: as §1

EPHA6 = EPHA6 (Homo sapiens (Human), UniProt Q9UF33)
Text: as §1

PLK3 = PLK3 (Homo sapiens (Human), UniProt Q9H4B4)
Text: as §1

[1] = molecular target: RPS6KA5(Kin.Dom.2-C-terminal) (Homo sapiens (Human), UniProt O75582)
Text: as §1

MKNK1 = MKNK1 (Homo sapiens (Human), UniProt Q9BUB5)
Text: as §1

PRKR = PRKR (Homo sapiens (Human), UniProt P19525)
Text: as §1

PKAC-alpha = PKAC-alpha (Homo sapiens (Human), UniProt P17612)
Text: as §1

DYRK1B = DYRK1B (Homo sapiens (Human), UniProt Q9Y463)
Text: as §1

IKK-epsilon = IKK-epsilon (Homo sapiens (Human), UniProt Q14164)
Text: as §1

TESK1 = TESK1 (Homo sapiens (Human), UniProt Q15569)
Text: as §1

STK33 = STK33 (Homo sapiens (Human), UniProt Q9BYT3)
Text: as §1

Chain of TTK (P33981 whole entry): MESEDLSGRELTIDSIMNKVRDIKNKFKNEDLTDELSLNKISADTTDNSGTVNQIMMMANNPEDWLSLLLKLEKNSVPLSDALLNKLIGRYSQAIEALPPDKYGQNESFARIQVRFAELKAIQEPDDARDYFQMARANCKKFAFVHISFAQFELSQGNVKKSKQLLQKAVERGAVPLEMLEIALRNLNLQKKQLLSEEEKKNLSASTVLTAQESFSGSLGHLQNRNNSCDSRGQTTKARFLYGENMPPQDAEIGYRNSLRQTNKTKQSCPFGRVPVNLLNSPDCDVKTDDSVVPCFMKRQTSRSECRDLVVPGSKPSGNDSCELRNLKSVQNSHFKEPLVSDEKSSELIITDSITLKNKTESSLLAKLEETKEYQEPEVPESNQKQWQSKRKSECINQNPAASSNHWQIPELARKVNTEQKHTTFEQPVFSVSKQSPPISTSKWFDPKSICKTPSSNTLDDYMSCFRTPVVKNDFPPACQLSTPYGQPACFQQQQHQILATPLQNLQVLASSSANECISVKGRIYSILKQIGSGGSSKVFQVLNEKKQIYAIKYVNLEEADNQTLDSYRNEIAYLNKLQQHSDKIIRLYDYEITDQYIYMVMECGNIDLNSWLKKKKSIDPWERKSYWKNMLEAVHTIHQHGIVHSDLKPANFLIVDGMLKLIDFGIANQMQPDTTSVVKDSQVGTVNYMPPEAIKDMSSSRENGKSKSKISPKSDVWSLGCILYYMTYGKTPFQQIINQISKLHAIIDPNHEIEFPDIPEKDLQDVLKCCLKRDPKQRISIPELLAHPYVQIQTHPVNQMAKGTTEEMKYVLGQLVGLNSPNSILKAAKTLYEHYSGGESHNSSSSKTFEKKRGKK
Chain of EPHA6 (Q9UF33 23-1036): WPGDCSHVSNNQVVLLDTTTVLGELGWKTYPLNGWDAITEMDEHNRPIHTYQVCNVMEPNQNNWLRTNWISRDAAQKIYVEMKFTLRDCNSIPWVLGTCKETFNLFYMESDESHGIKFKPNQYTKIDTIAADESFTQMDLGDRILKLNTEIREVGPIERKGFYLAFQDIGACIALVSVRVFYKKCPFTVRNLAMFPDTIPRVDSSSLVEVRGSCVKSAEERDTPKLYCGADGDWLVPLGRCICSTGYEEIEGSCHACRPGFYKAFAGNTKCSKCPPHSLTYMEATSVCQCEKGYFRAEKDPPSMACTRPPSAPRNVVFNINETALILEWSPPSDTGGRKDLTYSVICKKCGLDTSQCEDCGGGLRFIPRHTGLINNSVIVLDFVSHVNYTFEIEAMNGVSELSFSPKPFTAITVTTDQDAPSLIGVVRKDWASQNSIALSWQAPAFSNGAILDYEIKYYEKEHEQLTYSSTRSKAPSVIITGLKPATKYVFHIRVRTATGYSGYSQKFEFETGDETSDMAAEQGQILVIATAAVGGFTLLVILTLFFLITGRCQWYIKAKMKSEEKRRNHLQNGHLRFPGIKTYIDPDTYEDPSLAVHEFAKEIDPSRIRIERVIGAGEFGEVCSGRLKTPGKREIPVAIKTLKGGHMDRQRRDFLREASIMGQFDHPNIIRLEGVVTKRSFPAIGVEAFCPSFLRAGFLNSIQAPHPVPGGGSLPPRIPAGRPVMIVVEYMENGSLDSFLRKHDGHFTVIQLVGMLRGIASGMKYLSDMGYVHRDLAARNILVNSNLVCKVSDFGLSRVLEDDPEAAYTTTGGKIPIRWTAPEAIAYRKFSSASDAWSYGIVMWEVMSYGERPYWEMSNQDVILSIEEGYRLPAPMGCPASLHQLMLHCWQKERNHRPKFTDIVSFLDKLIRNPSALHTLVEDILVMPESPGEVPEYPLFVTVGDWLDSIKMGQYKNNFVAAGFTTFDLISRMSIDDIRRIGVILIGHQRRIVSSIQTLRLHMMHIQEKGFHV
Chain of STK33 (Q9BYT3 whole entry): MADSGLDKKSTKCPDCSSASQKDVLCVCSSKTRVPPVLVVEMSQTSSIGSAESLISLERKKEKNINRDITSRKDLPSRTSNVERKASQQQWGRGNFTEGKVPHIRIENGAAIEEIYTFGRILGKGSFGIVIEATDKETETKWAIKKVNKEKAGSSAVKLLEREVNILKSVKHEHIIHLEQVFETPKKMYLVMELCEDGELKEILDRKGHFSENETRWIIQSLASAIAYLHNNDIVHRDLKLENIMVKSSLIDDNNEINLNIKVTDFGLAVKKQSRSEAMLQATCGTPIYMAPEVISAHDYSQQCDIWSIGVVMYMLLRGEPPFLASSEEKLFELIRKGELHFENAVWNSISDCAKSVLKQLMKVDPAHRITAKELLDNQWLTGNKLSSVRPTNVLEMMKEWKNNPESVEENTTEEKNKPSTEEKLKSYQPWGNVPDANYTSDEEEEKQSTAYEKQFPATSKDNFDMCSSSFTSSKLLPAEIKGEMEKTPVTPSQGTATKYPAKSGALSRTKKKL
Chain of LATS2 (Q9NRM7 whole entry): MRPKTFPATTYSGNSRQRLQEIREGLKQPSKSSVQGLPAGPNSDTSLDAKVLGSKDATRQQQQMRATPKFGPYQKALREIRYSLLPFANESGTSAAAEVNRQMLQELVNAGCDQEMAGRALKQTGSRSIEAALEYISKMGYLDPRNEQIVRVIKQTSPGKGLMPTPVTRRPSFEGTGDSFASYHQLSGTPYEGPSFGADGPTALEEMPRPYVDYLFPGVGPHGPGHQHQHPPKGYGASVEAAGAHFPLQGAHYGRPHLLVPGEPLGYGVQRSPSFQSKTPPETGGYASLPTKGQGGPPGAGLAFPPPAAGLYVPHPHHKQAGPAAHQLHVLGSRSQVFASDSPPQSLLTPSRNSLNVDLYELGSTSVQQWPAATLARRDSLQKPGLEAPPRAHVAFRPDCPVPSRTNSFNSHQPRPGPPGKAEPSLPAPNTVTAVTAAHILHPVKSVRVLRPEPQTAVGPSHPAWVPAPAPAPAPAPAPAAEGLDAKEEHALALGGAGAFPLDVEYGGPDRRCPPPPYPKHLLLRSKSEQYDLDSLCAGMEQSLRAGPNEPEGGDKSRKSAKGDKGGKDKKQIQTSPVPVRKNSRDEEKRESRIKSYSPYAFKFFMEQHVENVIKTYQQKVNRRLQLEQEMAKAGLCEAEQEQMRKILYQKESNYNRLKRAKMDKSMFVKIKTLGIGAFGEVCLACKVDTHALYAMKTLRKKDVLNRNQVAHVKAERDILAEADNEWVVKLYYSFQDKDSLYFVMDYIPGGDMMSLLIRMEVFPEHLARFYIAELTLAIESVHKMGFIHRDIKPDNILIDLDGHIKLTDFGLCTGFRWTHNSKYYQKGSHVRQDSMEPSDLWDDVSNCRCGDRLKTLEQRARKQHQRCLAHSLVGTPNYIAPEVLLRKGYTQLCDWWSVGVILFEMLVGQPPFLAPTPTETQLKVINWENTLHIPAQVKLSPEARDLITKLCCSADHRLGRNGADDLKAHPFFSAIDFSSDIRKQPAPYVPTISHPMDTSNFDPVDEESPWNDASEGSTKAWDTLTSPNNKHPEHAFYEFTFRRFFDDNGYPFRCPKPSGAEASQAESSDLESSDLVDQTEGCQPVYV
Chain of BMPR2 (Q13873 27-1038): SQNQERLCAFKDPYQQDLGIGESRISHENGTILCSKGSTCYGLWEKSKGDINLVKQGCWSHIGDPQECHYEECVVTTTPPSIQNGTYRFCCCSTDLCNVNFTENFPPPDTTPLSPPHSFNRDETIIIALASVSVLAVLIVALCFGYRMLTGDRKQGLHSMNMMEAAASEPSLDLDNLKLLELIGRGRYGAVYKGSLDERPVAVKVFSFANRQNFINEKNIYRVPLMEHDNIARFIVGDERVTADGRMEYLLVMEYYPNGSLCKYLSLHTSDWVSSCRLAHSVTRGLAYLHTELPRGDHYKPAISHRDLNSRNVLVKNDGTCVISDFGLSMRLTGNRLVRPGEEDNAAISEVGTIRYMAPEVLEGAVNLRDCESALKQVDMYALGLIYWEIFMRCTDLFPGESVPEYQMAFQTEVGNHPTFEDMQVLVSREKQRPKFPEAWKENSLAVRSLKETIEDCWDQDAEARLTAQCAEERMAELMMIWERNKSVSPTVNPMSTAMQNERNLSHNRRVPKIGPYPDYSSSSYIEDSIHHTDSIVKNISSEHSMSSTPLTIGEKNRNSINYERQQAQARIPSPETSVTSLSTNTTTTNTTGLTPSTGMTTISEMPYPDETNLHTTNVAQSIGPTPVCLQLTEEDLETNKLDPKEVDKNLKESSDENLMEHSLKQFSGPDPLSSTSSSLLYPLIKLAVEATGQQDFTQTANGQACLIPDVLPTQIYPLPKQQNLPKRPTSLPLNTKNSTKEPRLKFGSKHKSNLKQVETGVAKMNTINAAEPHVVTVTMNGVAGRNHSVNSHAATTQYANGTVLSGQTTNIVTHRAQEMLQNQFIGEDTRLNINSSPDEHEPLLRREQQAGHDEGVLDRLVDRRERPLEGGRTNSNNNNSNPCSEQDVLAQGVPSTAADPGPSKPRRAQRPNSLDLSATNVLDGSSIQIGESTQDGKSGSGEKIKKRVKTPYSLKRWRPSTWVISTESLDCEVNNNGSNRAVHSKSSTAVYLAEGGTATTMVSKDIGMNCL
Chain of PIP5K2B (P78356 whole entry): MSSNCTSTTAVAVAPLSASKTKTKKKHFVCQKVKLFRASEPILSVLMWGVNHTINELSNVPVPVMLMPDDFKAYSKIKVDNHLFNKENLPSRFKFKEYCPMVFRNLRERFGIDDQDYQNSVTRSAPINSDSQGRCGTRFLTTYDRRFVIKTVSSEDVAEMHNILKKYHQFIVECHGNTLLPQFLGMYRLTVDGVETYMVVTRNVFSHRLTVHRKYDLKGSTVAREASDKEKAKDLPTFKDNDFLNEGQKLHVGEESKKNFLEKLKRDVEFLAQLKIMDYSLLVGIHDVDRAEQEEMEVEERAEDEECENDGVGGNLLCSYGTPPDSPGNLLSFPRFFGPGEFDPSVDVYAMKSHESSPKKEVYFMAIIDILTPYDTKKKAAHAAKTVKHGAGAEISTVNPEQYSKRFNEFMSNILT

CCN1CCN(Cc2ccc(Nc3nc4ccc(Oc5ccnc(NC(C)=O)c5)c(C)c4n3C)cc2C(F)(F)F)CC1 [Compound I-6, N-(4-(2-(4-((4-ethylpiperazin-1-yl)methyl)-3-(trifluoromethyl)phenylamino)-1,7-dimethyl-1H-benzo[d]imidazol-6-yloxy)pyridin-2-yl)acetamide] gave a remaining binding at 1 µM (LYN) of 12%, a remaining binding at 1 µM (EPHA3) of 68% and a remaining binding at 1 µM (MINK) of 59%. The remaining binding at 1 µM (WNK2) was 66%, the remaining binding at 1 µM (PIM3) was 86% and the remaining binding at 1 µM (ACVRL1) was 93%. For the same compound, the remaining binding at 1 µM (TRKA) was 3.5%, the remaining binding at 1 µM (SRC) was 32% and the remaining binding at 1 µM (QSK) was 85%. The remaining binding at 1 µM (BMPR2) was 100%, the remaining binding at 1 µM (CAMK2B) was 94% and the remaining binding at 1 µM (RIPK2) was 82%. The remaining binding at 1 µM (NEK2) was 91%, the remaining binding at 1 µM (CDC2L2) was 0.2% and the remaining binding at 1 µM (PIK3CA(H1047L)) was 85%. For the same compound, the remaining binding at 1 µM (PRKD3) was 92%, the remaining binding at 1 µM (TTK) was 96% and the remaining binding at 1 µM (BRAF) was 9.2%. It also gave a remaining binding at 1 µM (MKK7) of 94%, a remaining binding at 1 µM (p38-beta) of 94% and a remaining binding at 1 µM (PDGFRB) of 0.05%. For the same compound, the remaining binding at 1 µM (IKK-alpha) was 75%, the remaining binding at 1 µM (FER) was 100% and the remaining binding at 1 µM (PIP5K2B) was 98%. It also gave a remaining binding at 1 µM (KIT(V559D, T670I)) of 1.5%, a remaining binding at 1 µM (LATS2) of 100% and a remaining binding at 1 µM (MAP3K1) of 86%. It also gave a remaining binding at 1 µM (SNARK) of 100%, a remaining binding at 1 µM (HPK1) of 56% and a remaining binding at 1 µM (FLT1) of 4.2%. For the same compound, the remaining binding at 1 µM (BMPR1A) was 98%, the remaining binding at 1 µM (EPHA6) was 96% and the remaining binding at 1 µM (PLK3) was 93%. The remaining binding at 1 µM [1] was 100%, the remaining binding at 1 µM (MKNK1) was 80% and the remaining binding at 1 µM (PRKR) was 64%. For the same compound, the remaining binding at 1 µM (PKAC-alpha) was 57%, the remaining binding at 1 µM (DYRK1B) was 50% and the remaining binding at 1 µM (IKK-epsilon) was 92%. It also gave a remaining binding at 1 µM (TESK1) of 62% and a remaining binding at 1 µM (STK33) of 66%.

For CCN1CCN(Cc2ccc(Nc3nc4ccc(Oc5ccnc(NC(C)=O)c5)cc4n3C)cc2C(F)(F)F)CC1 [Compound I-2], the remaining binding at 1 µM (LYN) was 44%, the remaining binding at 1 µM (EPHA3) was 52% and the remaining binding at 1 µM (MINK) was 92%. For the same compound, the remaining binding at 1 µM (WNK2) was 98%, the remaining binding at 1 µM (PIM3) was 93% and the remaining binding at 1 µM (ACVRL1) was 85%. It also gave a remaining binding at 1 µM (TRKA) of 31%, a remaining binding at 1 µM (SRC) of 61% and a remaining binding at 1 µM (QSK) of 60%. For the same compound, the remaining binding at 1 µM (BMPR2) was 100%, the remaining binding at 1 µM (CAMK2B) was 92% and the remaining binding at 1 µM (RIPK2) was 94%. For the same compound, the remaining binding at 1 µM (NEK2) was 97%, the remaining binding at 1 µM (CDC2L2) was 0.1% and the remaining binding at 1 µM (PIK3CA(H1047L)) was 73%. It also gave a remaining binding at 1 µM (PRKD3) of 84%, a remaining binding at 1 µM (TTK) of 75% and a remaining binding at 1 µM (BRAF) of 3.9%. It also gave a remaining binding at 1 µM (MKK7) of 80%, a remaining binding at 1 µM (p38-beta) of 100% and a remaining binding at 1 µM (PDGFRB) of 0%. The remaining binding at 1 µM (IKK-alpha) was 100%, the remaining binding at 1 µM (FER) was 91% and the remaining binding at 1 µM (PIP5K2B) was 57%. The remaining binding at 1 µM (KIT(V559D, T670I)) was 1.2%, the remaining binding at 1 µM (LATS2) was 100% and the remaining binding at 1 µM (MAP3K1) was 77%. The remaining binding at 1 µM (SNARK) was 100%, the remaining binding at 1 µM (HPK1) was 69% and the remaining binding at 1 µM (FLT1) was 6.3%. It also gave a remaining binding at 1 µM (BMPR1A) of 100%, a remaining binding at 1 µM (EPHA6) of 100% and a remaining binding at 1 µM (PLK3) of 81%. For the same compound, the remaining binding at 1 µM [1] was 90%, the remaining binding at 1 µM (MKNK1) was 95% and the remaining binding at 1 µM (PRKR) was 39%. For the same compound, the remaining binding at 1 µM (PKAC-alpha) was 65%, the remaining binding at 1 µM (DYRK1B) was 71% and the remaining binding at 1 µM (IKK-epsilon) was 91%. For the same compound, the remaining binding at 1 µM (TESK1) was 67% and the remaining binding at 1 µM (STK33) was 76%.
